Test results reported in patent publication US11807625B2, “Capsid inhibitors for the prevention of HIV” (Gilead Sciences, Inc., priority 2019, dated 2023).

Experiment: PK of compound of Formula (Ia) after single subcutaneous dose of solution formulations in Wistar Han rats
Format: in vivo
Settings: male, Wistar Han, rat, plasma, sc, 50 mg/kg, Wistar Han rats, SC 50 mg/kg
Protocol: Formulations containing the compound of Formula (Ia), or a pharmaceutically acceptable salt thereof, were prepared as solutions and optionally administered subcutaneously or intramuscularly to rats, rabbits, and/or dogs.
(§1) A solution of about 400 mg/mL of the compound of Formula (Ia) having 19.14 w/w % water, 40.66 w/w % PEG 300, 35.20 w/w % of a sodium salt of a compound of Formula (Ia), and 5.00% ethanol was prepared. The solution was administered subcutaneously to male Wistar Han rats at a dose level of about 50 mg/kg and dose volume of 0.125 mL/kg and the pharmacokinetic (PK) profile was determined.
as §1, with “500” for “400”, “16.64” for “19.14”, “35.36” for “40.66”, “43.00” for “35.20”, “0.1” for “0.125”
(§2) A solution of about 400 mg/mL of the compound of Formula (Ia) having 17.00 w/w % water, 36.40 w/w % PEG 300, 35.20 w/w % of a sodium salt of a compound of Formula (Ia), 5.00 w/w % ethanol, and 6.40 w/w % poloxamer 188 was prepared. The solution was administered subcutaneously to male beagle dogs at a dose level of about 12 mg/kg and male Wistar Han rats at a dose level of about 50 mg/kg. The pharmacokinetic profiles were determined, and the results for dogs are summarized in Table and Table, while the results for rats are summarized in Table and Table below.
as §2, with “500” for “400”, “14.06” for “17.00”, “30.12” for “36.40”
A solution of about 300 mg/mL of the compound of Formula (Ia) having 23.33 w/w % water, 48.99 w/w % PEG 300, 26.47 w/w % of a sodium salt of a compound of Formula (Ia), and 1.21 w/w % poloxamer 188 was prepared. The solution was administered subcutaneously to male beagle dogs at a dose level of about 6 mg/kg and male Wistar Han rats at a dose level of about 50 mg/kg. The pharmacokinetic profiles were determined, and the results for dogs are summarized in Table and Table, while the results for rats are summarized in Table and Table below.
as §2, with “18.80” for “17.00”, “40.25” for “36.40”, “34.38” for “35.20”, “1.57” for “6.40”
as §2, with “500” for “400”, “16.29” for “17.00”, “34.88” for “36.40”, “41.92” for “35.20”, “1.91” for “6.40”
A solution of about 400 mg/mL of the compound of Formula (Ia) having 20.90 w/w % water, 44.72 w/w % PEG 300, and 34.38 w/w % of a sodium salt of a compound of Formula (Ia) was prepared. […]

[1] = 400 mg/mL solution AA (6.25% poloxamer 188), Mean n = 4
[2] = 400 mg/mL solution W (5.00% ethanol, 1.57% poloxamer 188), Mean n = 3
[3] = 400 mg/mL solution W (5.00% ethanol, 1.57% poloxamer 188), animals #1-#3
[4] = 400 mg/mL solution Y (water, PEG 300), Mean n = 4
[5] = 400 mg/mL solution Y (water, PEG 300), animals #1-#4
[6] = 400 mg/mL solution Z (3.13% poloxamer 188), Mean n = 4
[7] = 400 mg/mL solution Z (3.13% poloxamer 188), animals #1-#4
[8] = 400 mg/mL solution Z (3.13% poloxamer 188), Mean (#2 NS)
[9] = 400 mg/mL solution Z (3.13% poloxamer 188), animals #1, #3, #4 (#2 NS)
[10] = 500 mg/mL solution X (5.00% ethanol, 1.91% poloxamer 188), Mean n = 3
[11] = 500 mg/mL solution X (5.00% ethanol, 1.91% poloxamer 188), animals #1-#3

`CC(C)(C#Cc1ccc(-c2ccc(Cl)c3c(NS(C)(=O)=O)nn(CC(F)(F)F)c23)c([C@H](Cc2cc(F)cc(F)c2)NC(=O)Cn2nc(C(F)(F)F)c3c2C(F)(F)[C@@H]2C[C@H]32)n1)S(C)(=O)=O` [compound of Formula (Ia)] gave a concentration at 2016 h [1] of 78.2 nM, a concentration at 2352 h [1] of 75.4 nM and a concentration at 2688 h [1] of 74.6 nM. The concentration at 3024 h [1] was 69.8 nM, the concentration at 3360 h [1] was 64.1 nM and the concentration at 3696 h [1] was 65.7 nM. It also gave a concentration at 1 h [2] of 30.6 nM, a concentration at 3 h [2] of 53.4 nM and a concentration at 8 h [2] of 76.9 nM. It also gave a concentration at 24 h [2] of 120 nM, a concentration at 24 h [3] of 127 nM and a concentration at 48 h [2] of 152 nM. For the same compound, the concentration at 48 h [3] was 128 nM, the concentration at 72 h [2] was 152 nM and the concentration at 72 h [3] was 112 nM. For the same compound, the concentration at 96 h [2] was 138 nM, the concentration at 96 h [3] was 98.6 nM and the concentration at 168 h [2] was 118 nM. For the same compound, the concentration at 168 h [3] was 80 nM, the concentration at 336 h [2] was 171 nM and the concentration at 336 h [3] was 123 nM. For the same compound, the concentration at 504 h [2] was 248 nM, the concentration at 504 h [3] was 194 nM and the concentration at 672 h [2] was 261 nM. For the same compound, the concentration at 672 h [3] was 217 nM, the concentration at 840 h [2] was 290 nM and the concentration at 840 h [3] was 273 nM. For the same compound, the concentration at 1008 h [2] was 239 nM, the concentration at 1008 h [3] was 176 nM and the concentration at 1344 h [2] was 305 nM. The concentration at 1344 h [3] was 260 nM, the concentration at 1680 h [2] was 261 nM and the concentration at 1680 h [3] was 206 nM. The concentration at 2016 h [2] was 201 nM, the concentration at 2016 h [3] was 163 nM and the concentration at 2352 h [2] was 162 nM. The concentration at 2352 h [3] was 164 nM, the concentration at 2688 h [2] was 173 nM and the concentration at 2688 h [3] was 170 nM. It also gave a concentration at 3024 h [2] of 131 nM, a concentration at 3024 h [3] of 145 nM and a concentration at 3360 h [2] of 129 nM. The concentration at 3360 h [3] was 151 nM, the concentration at 3696 h [2] was 107 nM and the concentration at 3696 h [3] was 133 nM. The concentration at 4032 h (400 mg/mL solution W (5.00% ethanol, 1.57% poloxamer 188), 4032 h, Mean n = 3) was 97.5 nM, the concentration at 4704 h (400 mg/mL solution W (5.00% ethanol, 1.57% poloxamer 188), 4704 h, Mean n = 3) was 57.9 nM and the concentration at 1 h [4] was 28.6 nM. The concentration at 1 h [5] was 28.7 nM, the concentration at 3 h [4] was 52.2 nM and the concentration at 3 h [5] was 51.3 nM. For the same compound, the concentration at 8 h [4] was 65.8 nM, the concentration at 8 h [5] was 62.1 nM and the concentration at 24 h [4] was 93.2 nM. The concentration at 24 h [5] was 72.1 nM, the concentration at 48 h [4] was 110 nM and the concentration at 48 h [5] was 83 nM. The concentration at 72 h [4] was 109 nM, the concentration at 72 h [5] was 87.1 nM and the concentration at 96 h [4] was 95.3 nM. For the same compound, the concentration at 168 h [4] was 85.7 nM, the concentration at 336 h [4] was 103 nM and the concentration at 504 h [4] was 131 nM. For the same compound, the concentration at 672 h [4] was 151 nM, the concentration at 840 h [4] was 158 nM and the concentration at 1008 h [4] was 162 nM. The concentration at 1344 h [4] was 159 nM, the concentration at 1680 h [4] was 132 nM and the concentration at 2016 h [4] was 117 nM. It also gave a concentration at 2352 h [4] of 118 nM, a concentration at 2688 h [4] of 119 nM and a concentration at 3024 h [4] of 105 nM. It also gave a concentration at 3360 h [4] of 95.2 nM, a concentration at 3696 h [4] of 90.4 nM and a concentration at 1 h [6] of 41.7 nM. It also gave a concentration at 3 h [6] of 70.3 nM, a concentration at 8 h [6] of 85.9 nM and a concentration at 24 h [6] of 144 nM. For the same compound, the concentration at 48 h [6] was 165 nM, the concentration at 72 h [6] was 163 nM and the concentration at 96 h [6] was 147 nM. For the same compound, the concentration at 168 h [6] was 135 nM, the concentration at 336 h [6] was 169 nM and the concentration at 504 h [6] was 166 nM. For the same compound, the concentration at 672 h [6] was 172 nM, the concentration at 672 h [7] was 163 nM and the concentration at 840 h [6] was 174 nM. The concentration at 1008 h [6] was 164 nM, the concentration at 1008 h [7] was 137 nM and the concentration at 1344 h [6] was 138 nM. For the same compound, the concentration at 1344 h [7] was 113 nM, the concentration at 1680 h [6] was 127 nM and the concentration at 1680 h [7] was 108 nM. It also gave a concentration at 2016 h [6] of 127 nM, a concentration at 2016 h [7] of 111 nM and a concentration at 2352 h [6] of 127 nM. It also gave a concentration at 2352 h [7] of 101 nM, a concentration at 2688 h [6] of 141 nM and a concentration at 2688 h [7] of 118 nM. It also gave a concentration at 3024 h [6] of 133 nM, a concentration at 3024 h [7] of 110 nM and a concentration at 3360 h [8] of 133 nM. For the same compound, the concentration at 3360 h [9] was 109 nM, the concentration at 3696 h [8] was 135 nM and the concentration at 3696 h [9] was 91.2 nM. It also gave a concentration at 1 h [10] of 46.8 nM, a concentration at 3 h [10] of 77.6 nM and a concentration at 3 h [11] of 89 nM. For the same compound, the concentration at 8 h [10] was 96.2 nM, the concentration at 8 h [11] was 115 nM and the concentration at 24 h [10] was 184 nM. The concentration at 24 h [11] was 164 nM, the concentration at 48 h [10] was 209 nM and the concentration at 48 h [11] was 209 nM. For the same compound, the concentration at 72 h [10] was 199 nM, the concentration at 72 h [11] was 207 nM and the concentration at 96 h [10] was 187 nM. The concentration at 96 h [11] was 193 nM, the concentration at 168 h [10] was 176 nM and the concentration at 168 h [11] was 204 nM. For the same compound, the concentration at 336 h [10] was 233 nM, the concentration at 336 h [11] was 269 nM and the concentration at 504 h [10] was 270 nM. It also gave a concentration at 504 h [11] of 311 nM, a concentration at 672 h [10] of 270 nM and a concentration at 672 h [11] of 312 nM. It also gave a concentration at 840 h [10] of 294 nM, a concentration at 840 h [11] of 361 nM and a concentration at 1008 h [10] of 235 nM. The concentration at 1008 h [11] was 209 nM, the concentration at 1344 h [10] was 272 nM and the concentration at 1344 h [11] was 314 nM. It also gave a concentration at 1680 h [10] of 247 nM, a concentration at 1680 h [11] of 206 nM and a concentration at 2016 h [10] of 193 nM. It also gave a concentration at 2016 h [11] of 161 nM, a concentration at 2352 h [10] of 158 nM and a concentration at 2352 h [11] of 111 nM.
